Tested on: P. falciparum 3D7 strain parasites
Conditions: P. falciparum 3D7; parasite-killing activity reported earlier; cited from earlier work

Structure (SMILES) | Pf3D7 IC50
COc1cc2nc(N3CCN(C)CC3)nc(NC3CCN(C)CC3)c2cc1OC [compound 39] | low Pf3D7 activity

Same assay, conditions: P. falciparum 3D7; parasite-killing activity reported earlier; read-out: Pf3D7 IC50; cited from earlier work

Structure (SMILES) | IC50
COc1cc2nc(N3CCN(C)CC3)nc(NC3CCN(C)CC3)c2cc1OC [compound 39] | > 300 nM

Target: T1, G9a (Homo sapiens, UniProt Q96KQ7)
T1 sequence (Q96KQ7 1-1210): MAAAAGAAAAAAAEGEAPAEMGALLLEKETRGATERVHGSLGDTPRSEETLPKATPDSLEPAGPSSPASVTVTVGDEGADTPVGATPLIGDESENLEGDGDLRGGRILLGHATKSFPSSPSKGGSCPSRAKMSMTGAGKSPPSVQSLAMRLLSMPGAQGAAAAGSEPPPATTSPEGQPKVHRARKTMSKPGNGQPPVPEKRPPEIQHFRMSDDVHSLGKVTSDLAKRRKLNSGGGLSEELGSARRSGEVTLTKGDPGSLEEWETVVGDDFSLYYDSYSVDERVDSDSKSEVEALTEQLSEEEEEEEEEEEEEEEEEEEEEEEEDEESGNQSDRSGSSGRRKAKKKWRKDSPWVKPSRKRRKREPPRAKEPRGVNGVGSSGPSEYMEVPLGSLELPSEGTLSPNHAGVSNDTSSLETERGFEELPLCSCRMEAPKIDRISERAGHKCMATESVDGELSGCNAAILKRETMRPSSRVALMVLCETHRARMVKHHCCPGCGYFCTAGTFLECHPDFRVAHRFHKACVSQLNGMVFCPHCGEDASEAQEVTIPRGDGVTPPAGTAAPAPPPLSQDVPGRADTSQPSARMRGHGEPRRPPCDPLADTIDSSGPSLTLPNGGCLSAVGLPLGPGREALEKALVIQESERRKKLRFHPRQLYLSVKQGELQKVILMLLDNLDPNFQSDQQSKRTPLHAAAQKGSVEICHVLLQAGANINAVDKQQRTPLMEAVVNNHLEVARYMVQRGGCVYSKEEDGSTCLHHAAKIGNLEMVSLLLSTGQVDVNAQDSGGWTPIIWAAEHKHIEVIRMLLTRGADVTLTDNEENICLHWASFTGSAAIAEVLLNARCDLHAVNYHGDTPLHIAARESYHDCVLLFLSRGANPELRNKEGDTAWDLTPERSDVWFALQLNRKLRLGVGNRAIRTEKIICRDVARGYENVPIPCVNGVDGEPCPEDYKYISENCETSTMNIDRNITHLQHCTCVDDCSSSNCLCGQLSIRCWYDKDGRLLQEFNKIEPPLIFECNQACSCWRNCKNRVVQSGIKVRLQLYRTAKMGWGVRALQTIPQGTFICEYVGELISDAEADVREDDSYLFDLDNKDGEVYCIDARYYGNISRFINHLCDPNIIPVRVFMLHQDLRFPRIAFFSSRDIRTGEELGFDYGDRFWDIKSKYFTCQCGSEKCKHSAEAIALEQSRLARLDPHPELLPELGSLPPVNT
Conditions: SPA, 5 nM G9a, H3 1-25 peptide 0.8 μM, 3H-SAM 8 μM

Structure (SMILES) | G9a IC50
COc1cc2nc(N3CC(C)CC(C)C3)nc(NC3CCN(Cc4ccccc4)CC3)c2cc1OC (stereo not shown) [compound 14] | inactive against G9a
COc1cc2c(NC3CCN(C)CC3)nc(N3CCCN(C)CC3)nc2cc1OCc1ccccc1 [compound 60] | complete loss of G9a activity
COc1cc2c(NC3CCN(Cc4ccccc4)CC3)nc(N3CCN(C)CC3)nc2cc1OCc1ccccc1 [compound 61] | virtually no G9a inhibition
COc1cc2c(NC3CCN(Cc4ccccc4)CC3)nc(N3CCCCC3)nc2cc1OCc1ccccc1 [compound 62] | virtually no G9a inhibition

Same assay, conditions: read-out: G9a IC50; SPA, 5 nM G9a, H3 1-25 peptide 0.8 μM, 3H-SAM 8 μM

Structure (SMILES) | IC50
COc1cc2nc(N3CCCCC3)nc(NC3CCN(Cc4ccccc4)C3)c2cc1OC (stereo not shown) [compound 33] | 830 nM
CCCCCCOc1cc2nc(N3CCCN(C)CC3)nc(NC3CCN(Cc4ccccc4)CC3)c2cc1OC [compound 74] | 39 nM
COc1cc2nc(N3CCCCC3)nc(NC3CCN(C(C)C)CC3)c2cc1OC [compound 54] | 319 nM
COc1cc2nc(N3CCCCC3)nc(NC3CCN(Cc4ccc(F)cc4)CC3)c2cc1OC [compound 28] | 1210 nM
CCCCCCOc1cc2nc(N3CCN(C)CC3)nc(NC3CCN(Cc4ccccc4)CC3)c2cc1OC [compound 77] | 114 nM
COc1cc2c(NC3CCN(Cc4ccccc4)CC3)nc(N3CCN(C)CC3)nc2cc1OCCC(C)C [compound 81] | 5340 nM
COc1cc2c(NC3CCN(Cc4ccccc4)CC3)nc(N3CCN(C)CC3)nc2cc1OCCCSC [compound 83] | 223 nM
COc1cc2nc(N3CC(C)CC(C)C3)nc(NC3CCN(C(C)=O)CC3)c2cc1OC (stereo not shown) [compound 37] | > 1000 nM
COc1cc2nc(N3CCCCC3)nc(Nc3ccccc3)c2cc1OC [compound 58] | > 10000 nM
COc1cc2nc(N3CCN(C)CC3)nc(NC3CCN(CC4CCCCC4)CC3)c2cc1OC [compound 45] | 25 nM
COc1cccc(CN2CCC(Nc3nc(N4CCN(C)CC4)nc4cc(OC)c(OC)cc34)CC2)c1 [compound 24] | 128 nM
CCCCOc1cc2nc(N3CCN(C)CC3)nc(NC3CCN(C(C)C)CC3)c2cc1OC [compound 80] | 843 nM
COc1cc2c(NC3CCN(Cc4ccccc4)CC3)nc(N3CCN(C)CC3)nc2cc1OCCCN(C)C [compound 70] | 8 nM
CCCCCCCCOc1cc2nc(N3CCN(C)CC3)nc(NC3CCN(Cc4ccccc4)CC3)c2cc1OC [compound 76] | 1020 nM
COc1cc2nc(N3CCC(C)CC3)nc(NC3CCN(Cc4ccccc4)CC3)c2cc1OC [compound 11] | 1330 nM
COc1cc2nc(N3CCN(C)CC3)nc(NC3CCN(Cc4cccc(F)c4)CC3)c2cc1OC [compound 22] | 132 nM
COc1cc2nc(N3CCN(C)CC3)nc(NC3CCN(Cc4ccc(C)cc4)CC3)c2cc1OC [compound 19] | 78 nM
COc1cc2cc(N3CCC(OC)CC3)nc(NC3CCN(Cc4ccccc4)CC3)c2cc1OC [compound 86, N-(1-Benzylpiperidin-4-yl)-6,7-dimethoxy-3-(4-methoxypiperidin-1-yl)isoquinolin-1-amine] | > 50000 nM
COc1cc2nc(N3CCCCC3)nc(NC3CCN(C(=O)c4ccccc4)CC3)c2cc1OC [compound 36] | > 10000 nM
COc1cc2c(NC3CCN(C(C)C)CC3)nc(N3CCN(C)CC3)nc2cc1OCCC(C)C [compound 82] | 2030 nM

Structure (SMILES) | IC50
COc1cc2nc(N3CCC(N(C)C)CC3)nc(NC3CCN(Cc4ccccc4)CC3)c2cc1OC [compound 13] | 506 nM
COc1cc2nc(N3CCCCC3)nc(NC3CCCN(Cc4ccccc4)C3)c2cc1OC (stereo not shown) [compound 31] | ~1000 nM
COc1cc2nc(N3CCCCC3)nc(NC3CCN(Cc4cccc(C)c4)CC3)c2cc1OC [compound 25] | 869 nM
COc1cc2nc(N3CCCN(C)CC3)nc(NC3CCN(C4CCCCC4)CC3)c2cc1OC [compound 48] | 55 nM
COc1cc2nc(N3CCN(C)CC3)nc(NC3CCCCC3)c2cc1OC [compound 55] | 6440 nM
COc1cc2nc(N3CC(C)CC(C)C3)nc(NC3CCN(Cc4ccccc4)CC3)c2cc1OC (stereo not shown) [compound 14] | ~10000 nM
COc1cc2nc(N3CCCN(C)CC3)nc(NC3CCN(C(C)C)CC3)c2cc1OC [compound 51] | 55 nM
COc1cc2nc(N3CCN(C)CC3)nc(NC3CCN(Cc4ccccc4F)CC3)c2cc1OC [compound 23] | 116 nM
COc1cc2c(NC3CCN(C(C)C)CC3)nc(N3CCN(C)CC3)nc2cc1OCCCN1CCCCC1 [compound 68] | 4 nM
COc1cc2c(NC3CCN(Cc4ccccc4)CC3)nc(N3CCCN(C)CC3)nc2cc1OCCCN(C)C [compound 69] | < 3 nM
COc1cc2c(NC3CCN(C)CC3)nc(N3CCCN(C)CC3)nc2cc1OCc1ccccc1 [compound 60] | > 1000 nM
COc1cc2nc(N3CCN(C)CC3)cc(NC3CCN(C)CC3)c2cc1OC [compound 91, 6,7-Dimethoxy-2-(4-methylpiperazin-1-yl)-N-(1-methylpiperidin-4-yl)quinolin-4-amine] | 30 nM
COc1cc2nc(N3CCCN(C)CC3)nc(NC3CCN(CC4CCCCC4)CC3)c2cc1OC [compound 44] | 10 nM
COc1cc2nc(N3CCN(c4ccccn4)CC3)nc(NC3CCN(C(=O)c4ccccc4)CC3)c2cc1OC [compound 35] | > 10000 nM
COc1cc2nc(N3CCN(c4ccccn4)CC3)nc(NC3CCN(Cc4ccccc4)C3)c2cc1OC (stereo not shown) [compound 34] | ~10000 nM
COc1cc2c(NC3CCN(Cc4ccccc4)CC3)nc(N3CCN(C)CC3)nc2cc1OCc1ccccc1 [compound 61] | ~10000 nM
COc1cc2nc(N3CC(C)CC(C)C3)nc(Nc3ccccc3)c2cc1OC (stereo not shown) [compound 59] | > 10000 nM
CCCCCOc1cc2nc(N3CCN(C)CC3)nc(NC3CCN(Cc4ccccc4)CC3)c2cc1OC [compound 78] | ~1000 nM
COc1cc2c(NC3CCN(Cc4ccccc4)CC3)nc(N3CCN(C)CC3)nc2cc1OCCCCSC [compound 84] | 575 nM
COc1cc2nc(N3CCC(c4ccccc4)CC3)nc(NC3CCN(Cc4ccccc4)CC3)c2cc1OC [compound 16] | > 10000 nM

Structure (SMILES) | IC50
COc1cc2nc(N3CCN(C)CC3)nc(NC3CCN(Cc4ccc(F)cc4)CC3)c2cc1OC [compound 21] | 112 nM
COc1cc2nc(N3CCCCC3)nc(NC3CCN(Cc4ccc(C)cc4)CC3)c2cc1OC [compound 26] | 690 nM
COc1cc2nc(N3CCCCCC3)nc(NC3CCN(Cc4ccccc4)CC3)c2cc1OC [compound 9] | 332 nM
COc1cc2nc(N3CCN(C)CC3)nc(NC3CCCN(Cc4ccccc4)C3)c2cc1OC (stereo not shown) [compound 30] | ~1000 nM
COc1cc2nc(N3CCCCC3)nc(NC3CCN(Cc4cccc(F)c4)CC3)c2cc1OC [compound 29] | ~1000 nM
CCCCCCOc1cc2nc(NCCCN(C)C)nc(NC3CCN(Cc4ccccc4)CC3)c2cc1OC [compound 75] | 39 nM
COc1cc2nc(N3CCCCC3)nc(NC3CCN(CC4CCCCC4)CC3)c2cc1OC [compound 46] | 295 nM
COc1cc2nc(N3CCN(C)CC3)nc(Nc3ccccc3)c2cc1OC [compound 57] | > 10000 nM
CCCCCCCCOc1cc2nc(N3CCCN(C)CC3)nc(NC3CCN(Cc4ccccc4)CC3)c2cc1OC [compound 73] | 211 nM
COc1cc2nc(N3CCN(c4ccccn4)CC3)nc(NC3CCN(C)CC3)c2cc1OC [compound 41] | > 1000 nM
COc1cc2nc(N3CCN(C)CC3)nc(NC3CCN(C(C)C)CC3)c2cc1OC [compound 52] | 123 nM
CCCCOc1cc2nc(N3CCN(C)CC3)nc(NC3CCN(Cc4ccccc4)CC3)c2cc1OC [compound 79] | 683 nM
COc1cc2nc(N3CCC(OC)CC3)nc(NC3CCN(Cc4ccccc4)CC3)c2cc1OC [compound 12] | 576 nM
COc1cc2nc(N3CCN(C)CC3)nc(NC3CCN(Cc4cccc(C)c4)CC3)c2cc1OC [compound 18] | 116 nM
COc1cc2cc(N3CCCCC3)nc(NC3CCN(Cc4ccccc4)CC3)c2cc1OC [compound 87, N-(1-Benzylpiperidin-4-yl)-6,7-dimethoxy-3-(piperidin-1-yl)isoquinolin-1-amine] | > 25000 nM
COc1cc2nc(N3CCN(C)CC3)nc(NC3CCN(Cc4ccccc4C)CC3)c2cc1OC [compound 20] | 169 nM
COc1cc2c(NC3CCN(Cc4ccccc4)CC3)nc(N3CCCCC3)nc2cc1OCc1ccccc1 [compound 62] | > 50000 nM
COc1cc2nc(N3CCCCC3)nc(NC3CCN(Cc4ccccc4C)CC3)c2cc1OC [compound 27] | ~1000 nM
